Consider 2 molecules from ChEMBL document CHEMBL1156867, “Improved synthesis of a fluorogenic ceramidase substrate” (Bioorg Med Chem, 2010).

Broadly, the IC50 is the concentration that inhibits the measured activity by half.

Calls of active or inactive are those of the source. No cut-off for these calls is given here.

Assay [1] has as its system SK-OV-3. As to the kind of experiment: Activity of ceramidase in human SKOV3 cells assessed as formation of 7-(((3R,4S)-4-amino-3,5- dihydroxypentyl)oxy)-2H-chromen-2-one at 16 uM after 1 to 24 hrs at 37 degC by HPLC. The assay is classed as cell-based. The conditions noted are these: TDE = time-dependent effect.
Assay [2] relates to SK-OV-3. As to the kind of experiment: Activity of ceramidase in human SKOV3 cells assessed as formation of 7-(((3R,4S)-4-amino-3,5- dihydroxypentyl)oxy)-2H-chromen-2-one at 16 uM after 1 to 24 hrs at 37 degC by umbelliferone formation based fluorescence intensity assay. To be noted: TDE = time-dependent effect. Format: cell-based.
Assay [3] relates to SK-OV-3. Kind of assay: Activity of ceramidase in human SKOV3 cells assessed as formation of 7-(((3R,4S)-4-amino-3,5- dihydroxypentyl)oxy)-2H-chromen-2-one at 16 uM after 24 hrs at 37 degC by HPLC. The assay is classed as cell-based.
Assay [4] in a line: Inhibition of ceramidase in human SKOV3 cells assessed as hydrolysis of N-((2S,3R)-1,3-dihydroxy-5-((2-oxo-2H-chromen-7-yl)oxy)pentan-2-yl)palmitamide at 16 uM after 24 hrs at 37 degC by HPLC. Format: cell-based. The conditions noted are these: sk-ov-3.
Assay [5] in a line: Inhibition of rat liver ceramidase assessed as hydrolysis of N-((2S,3R)-1,3-dihydroxy-5-((2-oxo-2H-chromen-7-yl)oxy)pentan-2-yl)palmitamide.
Assay [6] is described as follows: Inhibition of pig liver ceramidase assessed as hydrolysis of N-((2S,3R)-1,3-dihydroxy-5-((2-oxo-2H-chromen-7-yl)oxy)pentan-2-yl)palmitamide. Further details: species or system Sus scrofa.
The nature of assay [7]: Inhibition of ceramidase in human SKOV3 cells assessed as hydrolysis of N-((2S,3R)-1,3-dihydroxy-5-((2-oxo-2H-chromen-7-yl)oxy)pentan-2-yl)palmitamide at 16 uM after 24 hrs at 37 degC by umbelliferone formation based fluorescence intensity assay. Format: cell-based, SK-OV-3.

On to `CCCCCCCCCCCCCCCC(=O)N[C@@H](CO)[C@H](O)CCOc1ccc2ccc(=O)oc2c1`, for which the Activity entry in the assay on SK-OV-3 [1] and with SK-OV-3 [2] was “tde” each time. In addition, the result with SK-OV-3 [3] was Active.

On to `CCCCCCCC/C=C\CCCCCCCC(=O)NCCO` [OLEOYLETHANOLAMIDE], for which the IC50 result is “Dose-dependent effect” in assay [4]; 24 µM in assay [4] (read-out: IC50); 71 µM in assay [5]; 76 µM in assay [6]; 28 µM in assay [7] (Homo sapiens, SK-OV-3, 24 h, read-out: IC50); “Dose-dependent effect” in assay [7] (sk-ov-3).
